Data from US8337851B2, “Methods of monitoring the efficacy of anti-CD40 antibodies in treating a subject for a CD40-expressing cancer” (Novartis AG, priority 2005, dated 2012).

What was measured:
[1] = test system: B-CLL cells from patients; assay: Western blot of apoptosis and survival biomarkers in sCD40L-stimulated B-CLL cells; assay type: cell-based, human
Experimental: In these experiments, 1.0×10^6 B-CLL cells from patients were stimulated with 1 μg/ml sCD40L (Alexis Corporation, Bingham, Noffinghamshire, UK). […] Cleaved PARP, which is a biomarker of apoptosis, and Bcl-xl, Bcl-2, and cIAP1, which are biomarkers of survival, were detected in cell lysates by Western blot analysis using commercially available antibodies specific for these biomarkers.
In these experiments, 1.0×10^6B-CLL cells from patients were stimulated with 1 μg/ml sCD40L (Alexis Corp., Bingham, Nottinghamshire, UK). […] Cells were collected at 22-24 hours. Western blot analysis with antibodies to cleaved PARP, caspase-3, and Bcl-xl were conducted on cell lysates. Antibody against β-actin was used for detecting equal loading and transfer efficiency.

[2] = test system: B-CLL cells from patients; assay: Western blot of CD40L-mediated signaling (p-IKK α/β, p-ERK, p-Akt, p-p38) in B-CLL cells; assay type: cell-based, human; conditions: 10 μg/ml
Experimental: In these experiments, 1.0×10^6 B-CLL cells from patients were stimulated with 1 μg/ml sCD40L (Alexis Corporation, Bingham, Nottinghamshire, UK). […] Cells were collected at 0 and 20 minutes. Phosphorylated IKKα (Ser180) and IKK β (Ser 181) (p-IKK α/β; NFkB pathway), phosphorylated ERK (p-ERK), phosphorylated Akt (p-Akt), and phosphorylated p38 MAPK (p-p38) were detected in cell lysates by Western blot.

B-CLL cells [3] = assay: p38 MAPK signaling and survival in B-CLL cells, 24-hour experiment; assay type: cell-based, human
Experimental: In the 24-hour experiment, approximately 0.8×10^6 B-CLL cells per well were placed in full serum (10% FBS)-containing media for 24 hours. […] Western blot analysis with antibodies against specific proteins shown was conducted, and equal loading was evaluated by probing with antibodies against β-actin.

CLL patient samples = assay: p-p38 status in multiple B-CLL patient samples; assay type: cell-based, human; conditions: CLL patients with high or low basal p-p38; CD40L stimulation
Description: Patients with low basal p-p38 activity have a higher induction of phosphorylation by CD40L stimulation than patients with a higher basal expression.

IM-9 cells = assay: ADCC, Calcein release with human NK cells, IM-9; assay type: cell-based; conditions: NK:target 10 to 1, 4 hours, read-out: ED50 (percent specific lysis)
Experimental: Human MM cell lines, KMS-12-BM, IM-9, and ARH-77, were washed 3 times using R2 medium (Pheno red-free RPMI with 2% FBS) and re-suspended in R10 medium (Pheno red-free RPMI with 10% FBS) at the density of 1×10^6/mL. Cells were labeled by adding Calcein AM (final concentration […]) and incubating for 30 minutes at 37° C. in a humidified atmosphere with 5% CO2. Purified human NK cells and Calcein-labeled target cells were mixed in R10 medium at the ratio of 10 to 1 (5×10^4 NK cells and 5×10^3 target cells in […]) and added in U-bottom 96 well plate (Packard's Instrument, Meriden, Conn.). […] 1% NP-40 was added in 3 wells for the maximum cell lysis. Cells were incubated for 4 hours without disturbance at 37° C. in a humidified atmosphere with 5% CO2. The plate was then centrifuged at 300 rpm without brake for 5 minutes. […] supernatant was transferred into a new 96 well plate. The released Calcein in the supernatant was measured in arbitrary fluorescent unit (AFU) at 485 nm excitation and 535 nm emission using Tecan SpectraFluor Plus (Tecan U.S., Inc., Research Triangle, N.C.). The percent of specific lysis was calculated as: 100×(AFU test−AFU spontaneous release)/(AFU maximal release−AFU spontaneous release).
The ED50 was determined for each cell line by plotting the log of antibody concentration versus the percent specific lysis (see FIG. 16).

[4] = test system: IM-9 tumor cells (a human multiple myeloma cell line); assay: Unstaged orthotopic IM-9 xenograft conditional survival model; assay type: in vivo, SCID mice; conditions: 0.1, 1 or 10 mg/kg i.p. once a week from one day after implantation
normal B cells = assay: CD40L-induced cytokine secretion from normal B cells (Meso Scale Discovery); assay type: cell-based, human; conditions: 10 μg/ml, 24 hours
Experimental: Cells (1×10^5 cells per well) were cultured in a 96-well plate in the presence or absence of CD40L (CD40 transfected, formaldehyde fixed CHO cells, 2×10^5 per well). […] Production of hIL-6, hIL-8, hIL-10, hTNF-α, hGM-CSF, hIL-1b, hIL-12p70, MCP-1, and MIP-1β was measured by Meso Scale Discovery® multi-array system (Meso Scale Discovery, Gaithersburg, Md.).

B-CLL cells [5] = assay: CellTiter-Glo viability of CLL patient PBMCs; assay type: cell-based, human; conditions: 72 hours, 10 μg/ml
Experimental: Cell viability was determined after 72 hours using the CellTiter-Glo® Luminescent Cell Viability Kit (Promega, Madison, Wis.), which measures cellular ATP, and expressed as Relative Luminescence Units (RLU). Percent blockade was calculated as follows: […]

B-CLL cells [6] = assay: Western blot of p-Akt, p-p38 MAPK, p-IKK α/β, p-ERK in B-CLL cells; assay type: cell-based, human
Experimental: To detect p38 MAPK, cells were cultured for 3 hr using the previously described conditions, with rhsCD40L being added in the last 20 min of incubation. Cells were processed as described above for data shown in FIG. 25. mAbs specific to human p-Akt and p-p38 MAPK were used to probe the resultant membranes, which were re-probed for AKT and p38 total protein, respectively.
Resultant membranes were probed using mAbs specific to human p-IKK α/β and p-ERK.

[7] = patients #4 and #21, 10 μg/ml, 24 hours, 1 μg/ml sCD40L
[8] = 3 hr culture, rhsCD40L in the last 20 min

CHIR-12.12: fully human anti-CD40 monoclonal antibody of the IgG1 isotype from hybridoma cell line 153.8E2.D10.D6.12.12 (ATCC PTA-5543)
cleaved PARP, caspase-3 and Bcl-xl, dose response (Western blot) ([1]; 0-20 μg/ml, 22-24 hours, 1 μg/ml sCD40L): induction of cleaved PARP and caspase-3 as well as reduction of Bcl-xl in a dose-dependent manner | lowest dose with effect on cleaved PARP, caspase-3 and Bcl-xl ([1]; 22-24 hours, 1 μg/ml sCD40L): ≥ 0.01 µg/mL | XIAP and Bcl-2 (Western blot) ([1]; patient #30, vs control IgG): reduced the expression of XIAP and Bcl-2 | cleaved PARP (Western blot) ([1]; patient #30, vs control IgG): induced the expression of cleaved PARP | cleaved PARP (Western blot) ([1]; patient #31, vs control IgG): induced the expression of cleaved PARP | cyclin D1 and Bcl-xl (Western blot) ([1]; patient #31, vs control IgG): reduced the expression of cyclin D1 and Bcl-xl | Bcl-2 and TRAIL level (Western blot) [1, 7]: no changes of Bcl-2 and TRAIL level | Bcl-xl, XIAP and cIAP1 (Western blot) [1, 7]: reduction of Bcl-xl, XIAP and cIAP1 | cleaved PARP (Western blot) ([1]; patients #4 and #21, 10 μg/ml, 24 hours, 1 μg/ml sCD40L, vs control IgG): induction of cleaved PARP | phosphorylation of IKK α/β, ERK and Akt ([2]; 20 minutes, 1 μg/ml sCD40L, vs control IgG): significant inhibition of phosphorylation of IKK α/β, ERK, and Akt | p38 MAPK activation ([2]; samples with constitutively activated p38 MAPK): did not significantly inhibit p38 MAPK activation | CD40 expression (B-CLL cells [3]): inhibited | cleaved Caspase-3 (B-CLL cells [3]; CD40L): induced to a lesser extent | p38 phosphorylation (B-CLL cells [3]; CD40L): similarly blocked | cleaved-PARP (B-CLL cells [3]; SB203580 30 and 60 μM, CHIR-12.12 10 μg/mL, CD40L): significantly induced | Bcl-xl expression (B-CLL cells [3]; especially 60 μM SB203580 and 10 μg/ml CHIR-12.12): blocked | p-p38 levels (CLL patient samples): lowered p-p38 levels back to basal phosphorylation | EC50 (IM-9 cells): 5.9 pM | survival of tumor-bearing mice [4]: prolonged the survival of tumor-bearing mice | cytokine production with antibody alone (agonistic activity) (normal B cells; absence of CD40L): did not produce any of the cytokines above background levels | inhibition of CD40L-induced MCP-1 secretion (normal B cells; Donor 1): 55.3 % inhibition | inhibition of CD40L-induced MIP-1β secretion (normal B cells; Donor 1): 54.4 % inhibition | inhibition of CD40L-induced hIL-6 secretion (normal B cells; Donor 1): 92.2 % inhibition | inhibition of CD40L-induced hIL-8 secretion (normal B cells; Donor 1): 98.2 % inhibition | inhibition of CD40L-induced hIL-10 secretion (normal B cells; Donor 1): 90.5 % inhibition | inhibition of CD40L-induced hTNF-α secretion (normal B cells; Donor 1): 92.8 % inhibition | inhibition of CD40L-induced MIP-1β secretion (normal B cells; Donor 2): 92 % inhibition | inhibition of CD40L-induced hIL-6 secretion (normal B cells; Donor 2): 99.9 % inhibition | inhibition of CD40L-induced hIL-8 secretion (normal B cells; Donor 2): 84.7 % inhibition | inhibition of CD40L-induced hTNF-α secretion (normal B cells; Donor 2): 97.4 % inhibition | inhibition of CD40L-induced MCP-1 secretion (normal B cells; Donor 3): 25.7 % inhibition | inhibition of CD40L-induced MIP-1β secretion (normal B cells; Donor 3): 92.5 % inhibition | inhibition of CD40L-induced hIL-6 secretion (normal B cells; Donor 3): 99.3 % inhibition | inhibition of CD40L-induced hIL-8 secretion (normal B cells; Donor 3): 99.5 % inhibition | inhibition of CD40L-induced hIL-10 secretion (normal B cells; Donor 3): 94.4 % inhibition | inhibition of CD40L-induced hTNF-α secretion (normal B cells; Donor 3): 98.5 % inhibition | blockade of CD40L-promoted survival (B-CLL cells [5]): in each case, these effects were blocked | CD40L-induced phosphorylation of IKK α/β and ERK ½ (B-CLL cells [6]; [8]): inhibited the CD40L-induced phosphorylation of IKK α/β and ERK ½ | rhsCD40L-enhanced phosphorylation of p38 MAPK (B-CLL cells [6]; [8]): blocked this effect | CD40L activation of the AKT pathway (p-Akt) (B-CLL cells [6]; in a number of samples): blocked this effect
